From US7411083B2, “Substituted acetic acid derivatives” (Wyeth, priority 2003, dated 2008)

biological target: T1, recombinant human plasminogen activator inhibitor-1 (PAI-1) (Homo sapiens, UniProt P05121); assay: Screening for PAI-1 inhibition (residual tPA activity, Spectrozyme-tPA chromogenic substrate); format: biochemical; settings: test compound at 100 Um; pH 6.6 buffer, 140 nM PAI-1, 70 nM tPA
T1 construct: purchased Molecular Innovations, Royal Oak, Mich
How it was run: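 PAI-1 at 140 nM, pH 6.6 buffer, preincubated 1 h at room temperature with compound (1-100 μM final, ≤0.2% DMSO), then 70 nM tPA added for 30 min. Residual tPA activity read by Spectrozyme-tPA absorbance at 405 nm at 0 and 60 min. Inhibition taken as residual tPA activity.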

T1 sequence (P05121 24-402): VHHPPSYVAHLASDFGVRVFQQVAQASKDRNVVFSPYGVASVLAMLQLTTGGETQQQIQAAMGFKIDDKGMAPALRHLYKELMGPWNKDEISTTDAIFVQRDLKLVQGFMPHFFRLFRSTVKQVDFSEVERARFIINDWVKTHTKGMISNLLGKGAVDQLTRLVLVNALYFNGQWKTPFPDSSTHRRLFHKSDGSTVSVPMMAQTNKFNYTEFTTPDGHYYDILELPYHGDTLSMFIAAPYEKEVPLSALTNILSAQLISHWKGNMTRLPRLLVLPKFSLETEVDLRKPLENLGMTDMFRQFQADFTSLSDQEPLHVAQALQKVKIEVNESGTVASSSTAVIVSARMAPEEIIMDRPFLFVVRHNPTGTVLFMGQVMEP

Row | Structure (SMILES) | inhibition at 100 µM
1 | C#CCn1cc(/C=N/OCC(=O)O)c2cc(OCc3cccc(Br)c3)ccc21 [Compound 36, [({(1E)-[5-[(3-bromobenzyl)oxy]-1-(2-propynyl)-1H-indol-3-yl]methylidene}amino)oxy]acetic acid] | 92%
2 | O=C(O)CO/N=C/c1ccc(C#CCOc2ccc(Br)cc2)cc1 [Compound 163, {[((1E)-{4-[3-(4-bromophenoxy)prop-1-ynyl]phenyl}methylidene)amino]oxy}acetic acid] | 65%
3 | C=CCn1cc(/C=N/OCC(=O)O)c2cc(OCc3cccc(C)c3)ccc21 [Compound 25, {[((1E)-{1-allyl-5-[(3-methylbenzyl)oxy]-1H-indol-3-yl}methylidene)amino]oxy}acetic acid] | 68%
4 | CCn1cc(/C=N/OCC(=O)O)c2cc(OCc3ccc(C)cc3)ccc21 [Compound 20, {[((1E)-{1-ethyl-5-[(4-methylbenzyl)oxy]-1H-indol-3-yl}methylidene)amino]oxy}acetic acid] | 44%
5 | CC(C)(C)c1ccc(COc2cccc(-c3cccc(/C=N/OCC(=O)O)c3)c2)cc1 [Compound 59, {[((1E)-{3′-[(4-tert-butylbenzyl)oxy]-1,1′-biphenyl-3-yl}methylidene)amino]oxy}acetic acid] | 63%
6 | O=C(O)CO/N=C/c1cccc(-c2ccc(OCc3cccc(C(F)(F)F)c3)cc2)c1 [Compound 80, ({[(1E)-(4′-{[3-(trifluoromethyl)benzyl]oxy}-1,1′-biphenyl-3-yl)methylidene]amino}oxy)acetic acid] | 78%
7 | Cc1cccc(COc2ccc3c(c2)c(/C=N/OCC(=O)O)cn3Cc2ccccc2)c1 [Compound 27, {[((1E)-{1-benzyl-5-[(3-methylbenzyl)oxy]-1H-indol-3-yl}methylidene)amino]oxy}acetic acid] | 99%
8 | Cn1cc(/C=N/OCC(=O)O)c2cc(OCc3ccc(C(C)(C)C)cc3)ccc21 [Compound 34, {[((1E)-{5-[(4-tert-butylbenzyl)oxy]-1-methyl-1H-indol-3-yl}methylidene)amino]oxy}acetic acid] | 88%
9 | O=C(O)CO/N=C/c1cccc(-c2cccc(OCc3cccc(C(F)(F)F)c3)c2)c1 [Compound 65, ({[(1E)-(3′-{[3-(trifluoromethyl)benzyl]oxy}-1,1′-biphenyl-3-yl)methylidene]amino}oxy)acetic acid] | 84%
10 | O=C(O)CO/N=C/c1cc(OCc2ccc(C(F)(F)F)cc2)cc(OCc2ccc(C(F)(F)F)cc2)c1 [Compound 144, ({[(1E)-(3,5-bis{[4-(trifluoromethyl)benzyl]oxy}phenyl)methylidene]amino}oxy)acetic acid] | 93%
11 | O=C(O)CO/N=C/c1ccc(-c2cccc(OCc3cccc(Cl)c3)c2)cc1 [Compound 92, {[((1E)-{3′-[(3-chlorobenzyl)oxy]-1,1′-biphenyl-4-yl}methylidene)amino]oxy}acetic acid] | 76%
12 | O=C(O)CO/N=C/c1cccc(-c2cccc(OCc3ccc4ccccc4c3)c2)c1 [Compound 69, [({(1E)-[3′-(2-naphthylmethoxy)-1,1′-biphenyl-3-yl]methylidene}amino)oxy]acetic acid] | 53%
13 | CC(C)(C)c1ccc(OCC#Cc2cccc(/C=N/OCC(=O)O)c2)cc1 [Compound 168, {[((1E)-{3-[3-(4-tert-butylphenoxy)prop-1-ynyl]phenyl}methylidene)amino]oxy}acetic acid] | 52%
14 | Cc1cccc(COc2ccc(/C=N/OCC(=O)O)c(OCc3cccc(C)c3)c2)c1 [Compound 129, {[((1E)-{2,4-bis[(3-methylbenzyl)oxy]phenyl}methylidene)amino]oxy}acetic acid] | 90%
15 | CCn1cc(/C=N/OCC(=O)O)c2cc(OCc3ccccc3Cl)ccc21 [Compound 28, {[((1E)-{5-[(2-chlorobenzyl)oxy]-1-ethyl-1H-indol-3-yl}methylidene)amino]oxy}acetic acid] | 70%
16 | C#CCn1cc(/C=N/OCC(=O)O)c2cc(OCc3ccc(C(C)(C)C)cc3)ccc21 [Compound 33, [({(1E)-[5-[(4-tert-butylbenzyl)oxy]-1-(2-propynyl)-1H-indol-3-yl]methylidene}amino)oxy]acetic acid] | 91%
17 | O=C(O)CO/N=C/c1cc(OCc2cccc(Br)c2)ccc1OCc1cccc(Br)c1 [Compound 158, {[((1E)-{2,5-bis[(3-bromobenzyl)oxy]phenyl}methylidene)amino]oxy}acetic acid] | 69%

Row | Structure (SMILES) | inhibition at 100 µM
18 | O=C(O)CO/N=C/c1ccc(-c2ccc(OCc3cccc(C(F)(F)F)c3)cc2)cc1 [Compound 106, ({[(1E)-(4′-{[3-(trifluoromethyl)benzyl]oxy}-1,1′-biphenyl-4-yl)methylidene]amino}oxy)acetic acid] | 8%
19 | O=C(O)CO/N=C/c1cc(OCc2ccc(F)c(F)c2)ccc1OCc1ccc(F)c(F)c1 [Compound 161, {[((1E)-{2,5-bis[(3,4-difluorobenzyl)oxy]phenyl}methylidene)amino]oxy}acetic acid] | 92%
20 | O=C(O)CO/N=C/c1ccc(OCc2cccc(Br)c2)cc1OCc1cccc(Br)c1 [Compound 128, {[((1E)-{2,4-bis[(3-bromobenzyl)oxy]phenyl}methylidene)amino]oxy}acetic acid] | 91%
21 | O=C(O)CO/N=C/c1cn(Cc2ccccc2)c2ccc(OCc3ccc(Cl)c(Cl)c3)cc12 [Compound 53, {[((1E)-{1-benzyl-5-[(3,4-dichlorobenzyl)oxy]-1H-indol-3-yl}methylidene)amino]oxy}acetic acid] | 76%
22 | C#CCn1cc(/C=N/OCC(=O)O)c2cc(OCc3cccc(C(F)(F)F)c3)ccc21 [Compound 42, ({[(1E)-(1-(2-propynyl)-5-{[3-(trifluoromethyl)benzyl]oxy}-1H-indol-3-yl)methylidene]amino}oxy)acetic acid] | 96%
23 | Cc1cccc(COc2cc(/C=N/OCC(=O)O)cc(OCc3cccc(C)c3)c2)c1 [Compound 148, {[((1E)-{3,5-bis[(3-methylbenzyl)oxy]phenyl}methylidene)amino]oxy}acetic acid] | 88%
24 | CC(C)(C)c1ccc(COc2ccc(/C=N/OCC(=O)O)cc2OCc2ccc(C(C)(C)C)cc2)cc1 [Compound 112, {[((1E)-{3,4-bis[(4-tert-butylbenzyl)oxy]phenyl}methylidene)amino]oxy}acetic acid] | 65%
25 | O=C(O)CO/N=C/c1ccc(-c2ccc(OCc3ccccc3)cc2)cc1 [Compound 105, [({(1E)-[4′-(benzyloxy)-1,1′-biphenyl-4-yl]methylidene}amino)oxy]acetic acid] | 5%
26 | O=C(O)CO/N=C/c1ccc(C#CCOc2cc(C(F)(F)F)cc(C(F)(F)F)c2)cc1 [Compound 164, ({[(1E)-(4-{3-[3,5-bis(trifluoromethyl)phenoxy]prop-1-ynyl}phenyl)methylidene]amino}oxy) acetic acid] | 73%
27 | CC(C)(C)c1ccc(OCC#Cc2ccc(/C=N/OCC(=O)O)cc2)cc1 [Compound 162, {[((1E)-{4-[3-(4-tert-butylphenoxy)prop-1-ynyl]phenyl}methylidene)amino]oxy}acetic acid] | 51%
28 | O=C(O)CO/N=C/c1ccc(-c2ccc(OCc3c(Cl)cccc3Cl)cc2)cc1 [Compound 111, {[((1E)-{4′-[(2,6-dichlorobenzyl)oxy]-1,1′-biphenyl-4-yl}methylidene)amino]oxy}acetic acid] | 38%
29 | C=CCn1cc(/C=N/OCC(=O)O)c2cc(OCc3ccc(Cl)c(Cl)c3)ccc21 [Compound 52, {[((1E)-{1-allyl-5-[(3,4-dichlorobenzyl)oxy]-1H-indol-3-yl}methylidene)amino]oxy}acetic acid] | 72%
30 | O=C(O)CO/N=C/c1ccc(OCc2cccc(Cl)c2)c(OCc2cccc(Cl)c2)c1 [Compound 116, {[((1E)-{3,4-bis[(3-chlorobenzyl)oxy]phenyl}methylidene)amino]oxy}acetic acid] | 92%
31 | O=C(O)CO/N=C/c1ccc(OCc2ccc(F)c(F)c2)cc1OCc1ccc(F)c(F)c1 [Compound 131, {[((1E)-{2,4-bis[(3,4-difluorobenzyl)oxy]phenyl}methylidene)amino]oxy}acetic acid] | 88%
32 | CC(C)(C)c1ccc(COc2ccc(-c3ccc(/C=N/OCC(=O)O)cc3)cc2)cc1 [Compound 102, {[((1E)-{4′-[(4-tert-butylbenzyl)oxy]-1,1′-biphenyl-4-yl}methylidene)amino]oxy}acetic acid] | 26%
33 | O=C(O)CO/N=C/c1cccc(C#CCOc2cc(Cl)cc(Cl)c2)c1 [Compound 171, {[((1E)-{3-[3-(3,5-dichlorophenoxy)prop-1-ynyl]phenyl}methylidene)amino]oxy}acetic acid] | 69%
34 | O=C(O)CO/N=C/c1cccc(-c2ccc(OCc3cc(C(F)(F)F)cc(C(F)(F)F)c3)cc2)c1 [Compound 76, ({[(1E)-(4′-{[3,5-bis(trifluoromethyl)benzyl]oxy}-1,1′-biphenyl-3-yl)methylidene]amino}oxy)acetic acid] | 73%
